According to ChEMBL document CHEMBL5365420, “Kinetics, Thermodynamics, and Structural Effects of Quinoline-2-Carboxylates, Zinc-Binding Inhibitors of New Delhi Metallo-β-lactamase-1 Re-sensitizing Multidrug-Resistant Bacteria for Carbapenems” (J Med Chem, 2023):

Tests used:
Escherichia coli [1] = assay: Antibacterial activity against clinical isolate Escherichia coli ST1012/10 expressing blaNDM-1 co-expressing blaTEM-1/blaCTX-M-15/blaOXA-1 and blaOXA-2 assessed as meropenem MIC at 29.60 uM measured after 20 hrs by broth microdilution assay (reference value: 12 mg/L); format: functional; conditions: dose 29.6 µM
[2] = Inhibition of VIM-2 (unknown origin) incubated for 15 mins by absorbance based microplate reader analysis; parameters: species or system Bacteria
Klebsiella pneumoniae [3] = assay: Antibacterial activity against clinical isolate Klebsiella pneumoniae 50/20 expressing blaNDM-5 co-expressing blaTEM-1 and blaSHV-1 assessed as meropenem MIC at 59.20 uM measured after 20 hrs by broth microdilution assay (reference value: 24 mg/L); format: functional; conditions: dose 59.2 µM
Klebsiella pneumoniae [4] = assay: Antibacterial activity against clinical isolate Klebsiella pneumoniae ST23213/19 expressing blaNDM-1 co-expressing blaOXA-48/blaSHV-11/blaCTX-M-15 and blaOXA-1 assessed as meropenem MIC at 29.60 uM measured after 20 hrs by broth microdilution assay (reference value: 12 mg/L); format: functional; conditions: dose 29.6 µM
[5] = Inhibition of IMP-1 (unknown origin) expressed in Escherichia coli BL21-DE3 incubated for 15 mins by absorbance based microplate reader analysis; parameters: species or system Bacteria
Klebsiella pneumoniae [6] = assay: Antibacterial activity against clinical isolate Klebsiella pneumoniae 62/07 expressing blaVIM-19 co-expressing blaSHV-1/blaCTX-M-14 and blaCMY-4 assessed as meropenem MIC at 29.60 uM measured after 20 hrs by broth microdilution assay (reference value: 12 mg/L); format: functional; conditions: dose 29.6 µM
Escherichia coli [7] = assay: Antibacterial activity against clinical isolate Escherichia coli K12 J53-ST10 696/17 expressing blaNDM-1 co-expressing blaCMY-4 assessed as meropenem MIC at 29.60 uM measured after 20 hrs by broth microdilution assay (reference value: 12 mg/L); format: functional; conditions: dose 29.6 µM
Acinetobacter baumannii [8] = assay: Antibacterial activity against clinical isolate Acinetobacter baumannii IC 19/09 expressing blaNDM-1 co-expressing blaOXA-64 assessed as meropenem MIC at 29.60 uM measured after 20 hrs by broth microdilution assay (reference value: 12 mg/L); format: functional; conditions: dose 29.6 µM
Klebsiella pneumoniae [9] = assay: Antibacterial activity against clinical isolate Klebsiella pneumoniae 50/20 expressing blaNDM-5 co-expressing blaTEM-1 and blaSHV-1 assessed as meropenem MIC at 29.60 uM measured after 20 hrs by broth microdilution assay (reference value: 12 mg/L); format: functional; conditions: dose 29.6 µM
Klebsiella pneumoniae [10] = assay: Antibacterial activity against clinical isolate Klebsiella pneumoniae 62/07 expressing blaVIM-19 co-expressing blaSHV-1/blaCTX-M-14 and blaCMY-4 assessed as meropenem MIC at 59.20 uM measured after 20 hrs by broth microdilution assay (reference value: 24 mg/L); format: functional; conditions: dose 59.2 µM
Escherichia coli [11] = assay: Antibacterial activity against clinical isolate Escherichia coli 371/12 expressing blaNDM-7 co-expressing blaCTX-M-15 and blaOXA-1 assessed as meropenem MIC at 29.60 uM measured after 20 hrs by broth microdilution assay (reference value: 12 mg/L); format: functional; conditions: dose 29.6 µM
Klebsiella pneumoniae [12] = assay: Antibacterial activity against clinical isolate Klebsiella pneumoniae 50/11 expressing blaNDM-1 co-expressing blaTEM-1/blaSHV-28/blaTEM-1/blaCTX-M-15 and blaOXA-1 assessed as meropenem MIC at 29.60 uM measured after 20 hrs by broth microdilution assay (reference value: 12 mg/L); format: functional; conditions: dose 29.6 µM
[13] = biological target: T1, 72 kDa type IV collagenase (Homo sapiens, UniProt P08253); assay: Inhibition of human recombinant MMP-2 CD at 10 uM using OMNIMMP as substrate incubated for 30 mins by fluorescence based analysis relative to control
Target sequence in this assay (P08253 110-660 limits assumed): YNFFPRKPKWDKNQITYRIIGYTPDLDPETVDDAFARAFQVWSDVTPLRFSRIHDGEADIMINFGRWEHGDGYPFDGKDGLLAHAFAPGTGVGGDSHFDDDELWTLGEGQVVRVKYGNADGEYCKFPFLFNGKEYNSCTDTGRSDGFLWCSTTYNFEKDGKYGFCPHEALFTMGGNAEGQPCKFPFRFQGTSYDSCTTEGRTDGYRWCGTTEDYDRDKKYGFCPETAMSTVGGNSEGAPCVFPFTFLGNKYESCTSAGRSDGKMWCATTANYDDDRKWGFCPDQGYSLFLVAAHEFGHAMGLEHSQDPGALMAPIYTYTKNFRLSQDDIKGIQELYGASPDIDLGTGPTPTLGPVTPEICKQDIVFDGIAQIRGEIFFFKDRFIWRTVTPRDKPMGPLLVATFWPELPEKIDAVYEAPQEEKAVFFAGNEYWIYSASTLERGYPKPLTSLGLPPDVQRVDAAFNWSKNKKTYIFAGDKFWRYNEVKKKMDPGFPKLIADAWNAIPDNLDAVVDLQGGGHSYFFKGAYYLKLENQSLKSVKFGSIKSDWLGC

[14] = biological target: Carbonic anhydrase 2 (Homo sapiens) (UniProt P00918); assay: Inhibition of human CA2 at 10 uM using pNPA as substrate preincubated for 15 mins followed by substrate by absorbance based analysis relative to control
Escherichia coli [15] = assay: Antibacterial activity against clinical isolate Escherichia coli K12 J53-ST10 684/18 expressing blaNDM-1 co-expressing blaCMY-2 and blaOXA-10 assessed as meropenem MIC at 29.60 uM measured after 20 hrs by broth microdilution assay (reference value: 12 mg/L); format: functional; conditions: dose 29.6 µM
[16] = Inhibition of GIM1 (unknown origin) incubated for 15 mins by absorbance based microplate reader analysis; parameters: species or system Bacteria
Escherichia coli [17] = assay: Antibacterial activity against clinical isolate Escherichia coli 371/12 expressing blaNDM-7 co-expressing blaCTX-M-15 and blaOXA-1 assessed as meropenem MIC at 59.20 uM measured after 20 hrs by broth microdilution assay (reference value: 24 mg/L); format: functional; conditions: dose 59.2 µM
Escherichia coli [18] = assay: Antibacterial activity against clinical isolate Escherichia coli K12 J53-ST10 684/18 expressing blaNDM-1 co-expressing blaCMY-2 and blaOXA-10 assessed as meropenem MIC at 59.20 uM measured after 20 hrs by broth microdilution assay (reference value: 24 mg/L); format: functional; conditions: dose 59.2 µM
Klebsiella pneumoniae [19] = assay: Antibacterial activity against clinical isolate Klebsiella pneumoniae ST1493/10 expressing blaNDM-1 co-expressing blaCMY-2like/blaTEM-1/blaCTX-M-15/blaSHV-28/blaOXA-1 and blaOXA-9 assessed as meropenem MIC at 59.20 uM measured after 20 hrs by broth microdilution assay (reference value: 24 mg/L); format: functional; conditions: dose 59.2 µM
Escherichia coli [20] = assay: Antibacterial activity against clinical isolate Escherichia coli K12 J53-ST10 618/15 expressing blaNDM-1 assessed as meropenem MIC at 59.20 uM measured after 20 hrs by broth microdilution assay (reference value: 24 mg/L); format: functional; conditions: dose 59.2 µM
Escherichia coli [21] = assay: Antibacterial activity against clinical isolate Escherichia coli ST1012/10 expressing blaNDM-1 co-expressing blaTEM-1/blaCTX-M-15/blaOXA-1 and blaOXA-2 assessed as meropenem MIC at 59.20 uM measured after 20 hrs by broth microdilution assay (reference value: 24 mg/L); format: functional; conditions: dose 59.2 µM
Escherichia coli [22] = assay: Antibacterial activity against clinical isolate Escherichia coli K12 J53-ST10 699/15 expressing blaNDM-1 assessed as meropenem MIC at 59.20 uM measured after 20 hrs by broth microdilution assay (reference value: 24 mg/L); format: functional; conditions: dose 59.2 µM
[23] = biological target: T1, 72 kDa type IV collagenase; assay: Binding affinity to human recombinant MMP-2 CD assessed as inhibition constant using OMNIMMP as substrate incubated for 30 mins by fluorescence based analysis
Target sequence in this assay (P08253 whole entry): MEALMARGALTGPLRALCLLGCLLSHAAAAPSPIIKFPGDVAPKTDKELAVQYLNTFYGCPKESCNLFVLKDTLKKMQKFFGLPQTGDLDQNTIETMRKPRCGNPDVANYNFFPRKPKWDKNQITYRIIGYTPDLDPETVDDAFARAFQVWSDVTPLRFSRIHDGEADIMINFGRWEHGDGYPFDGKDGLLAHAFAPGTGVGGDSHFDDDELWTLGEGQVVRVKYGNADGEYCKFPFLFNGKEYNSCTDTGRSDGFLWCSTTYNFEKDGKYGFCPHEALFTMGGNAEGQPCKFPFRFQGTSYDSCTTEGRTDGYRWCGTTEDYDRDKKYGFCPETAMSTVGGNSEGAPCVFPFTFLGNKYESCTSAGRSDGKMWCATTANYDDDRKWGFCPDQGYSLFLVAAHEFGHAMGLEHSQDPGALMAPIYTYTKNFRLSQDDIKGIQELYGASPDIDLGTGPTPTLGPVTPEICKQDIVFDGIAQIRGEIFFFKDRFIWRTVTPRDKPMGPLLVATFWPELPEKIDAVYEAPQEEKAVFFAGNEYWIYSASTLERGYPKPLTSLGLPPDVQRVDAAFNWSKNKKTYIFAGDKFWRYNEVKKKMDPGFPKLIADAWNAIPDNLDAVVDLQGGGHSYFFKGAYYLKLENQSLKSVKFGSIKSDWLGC

[24] = biological target: Histone deacetylase 1 (Homo sapiens) (UniProt Q13547); assay: Inhibition of C-terminal 6His/FLAG-tagged human recombinant full-length HDAC1 (1 to 482(end) residues) at 10 uM using Boc-Lys-(Ac)-AMC as substrate incubated for 10 mins followed by substrate addition measured after 1 hr by fluorescence based analysis relative to control; conditions: time 70.0 min
Sequence of Histone deacetylase 1 (Homo sapiens) (Q13547 whole entry): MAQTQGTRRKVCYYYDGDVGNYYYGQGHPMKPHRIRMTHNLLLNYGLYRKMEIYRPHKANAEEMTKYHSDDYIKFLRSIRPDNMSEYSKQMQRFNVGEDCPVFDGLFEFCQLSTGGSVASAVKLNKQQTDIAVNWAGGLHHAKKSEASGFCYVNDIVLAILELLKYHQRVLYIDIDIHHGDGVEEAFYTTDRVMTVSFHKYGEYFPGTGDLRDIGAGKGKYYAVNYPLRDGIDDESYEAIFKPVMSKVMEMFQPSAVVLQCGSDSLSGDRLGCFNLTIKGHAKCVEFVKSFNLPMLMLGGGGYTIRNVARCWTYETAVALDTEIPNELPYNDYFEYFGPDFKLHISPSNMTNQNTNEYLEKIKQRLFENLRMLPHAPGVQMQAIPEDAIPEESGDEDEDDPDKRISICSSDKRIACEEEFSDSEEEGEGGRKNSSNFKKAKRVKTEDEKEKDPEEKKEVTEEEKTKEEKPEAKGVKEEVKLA

Escherichia coli [25] = assay: Antibacterial activity against clinical isolate Escherichia coli K12 J53-ST10 699/15 expressing blaNDM-1 assessed as meropenem MIC at 29.60 uM measured after 20 hrs by broth microdilution assay (reference value: 12 mg/L); format: functional; conditions: dose 29.6 µM
Klebsiella pneumoniae [26] = assay: Antibacterial activity against clinical isolate Klebsiella pneumoniae ST23213/19 expressing blaNDM-1 co-expressing blaOXA-48/blaSHV-11/blaCTX-M-15 and blaOXA-1 assessed as meropenem MIC at 59.20 uM measured after 20 hrs by broth microdilution assay (reference value: 24 mg/L); format: functional; conditions: dose 59.2 µM
Klebsiella pneumoniae [27] = assay: Antibacterial activity against clinical isolate Klebsiella pneumoniae ST1493/10 expressing blaNDM-1 co-expressing blaCMY-2like/blaTEM-1/blaCTX-M-15/blaSHV-28/blaOXA-1 and blaOXA-9 assessed as meropenem MIC at 29.60 uM measured after 20 hrs by broth microdilution assay (reference value: 12 mg/L); format: functional; conditions: dose 29.6 µM
Escherichia coli [28] = assay: Antibacterial activity against clinical isolate Escherichia coli K12 J53-ST10 696/17 expressing blaNDM-1 co-expressing blaCMY-4 assessed as meropenem MIC at 59.20 uM measured after 20 hrs by broth microdilution assay (reference value: 24 mg/L); format: functional; conditions: dose 59.2 µM
Klebsiella pneumoniae [29] = assay: Antibacterial activity against clinical isolate Klebsiella pneumoniae 50/11 expressing blaNDM-1 co-expressing blaTEM-1/blaSHV-28/blaTEM-1/blaCTX-M-15 and blaOXA-1 assessed as meropenem MIC at 59.20 uM measured after 20 hrs by broth microdilution assay (reference value: 24 mg/L); format: functional; conditions: dose 59.2 µM
Escherichia coli [30] = assay: Antibacterial activity against clinical isolate Escherichia coli K12 J53-ST10 618/15 expressing blaNDM-1 assessed as meropenem MIC at 29.60 uM measured after 20 hrs by broth microdilution assay (reference value: 12 mg/L); format: functional; conditions: dose 29.6 µM
Acinetobacter baumannii [31] = assay: Antibacterial activity against clinical isolate Acinetobacter baumannii IC 19/09 expressing blaNDM-1 co-expressing blaOXA-64 assessed as meropenem MIC at 59.20 uM measured after 20 hrs by broth microdilution assay (reference value: 24 mg/L); format: functional; conditions: dose 59.2 µM

- MIC (Escherichia coli [1]): 0.5 µg/mL
- IC50 [2]: 400 nM
- MIC (Klebsiella pneumoniae [3]): ≤ 0.125 µg/mL
- MIC (Klebsiella pneumoniae [4]): 16 µg/mL
- IC50 [5]: 690 nM
- MIC (Klebsiella pneumoniae [6]): 8 µg/mL
- MIC (Escherichia coli [7]): 0.25 µg/mL
- MIC (Acinetobacter baumannii [8]): 16 µg/mL
- MIC (Klebsiella pneumoniae [9]): 2 µg/mL
- MIC (Klebsiella pneumoniae [10]): 0.25 µg/mL
- MIC (Escherichia coli [11]): 32 µg/mL
- MIC (Klebsiella pneumoniae [12]): 0.5 µg/mL
- inhibition [13]: > 90%
- inhibition [14]: < 5%
- MIC (Escherichia coli [15]): 0.5 µg/mL
- IC50 [16]: 650 nM
- MIC (Escherichia coli [17]): ≤ 0.125 µg/mL
- MIC (Escherichia coli [18]): ≤ 0.125 µg/mL
- MIC (Klebsiella pneumoniae [19]): 1 µg/mL
- MIC (Escherichia coli [20]): ≤ 0.125 µg/mL
- MIC (Escherichia coli [21]): ≤ 0.125 µg/mL
- MIC (Escherichia coli [22]): ≤ 0.125 µg/mL
- Ki [23]: 7750 nM
- inhibition [24]: < 5%
- MIC (Escherichia coli [25]): 1 µg/mL
- MIC (Klebsiella pneumoniae [26]): 16 µg/mL
- MIC (Klebsiella pneumoniae [27]): 4 µg/mL
- MIC (Escherichia coli [28]): ≤ 0.125 µg/mL
- MIC (Klebsiella pneumoniae [29]): 0.25 µg/mL
- MIC (Escherichia coli [30]): ≤ 0.125 µg/mL
- MIC (Acinetobacter baumannii [31]): 1 µg/mL
Compound: O=C(O)c1ccc2c(-c3ccccc3)ccc(NS(=O)(=O)c3ccccn3)c2n1
